From patent US7851637B2, “Compounds and methods for inhibiting the interaction of BCL proteins with binding partners” (Infinity Pharmaceuticals, Inc., priority 2004, dated 2010)
pKi: −log10 of the molar value.

Assays:
[1] = target: Bcl-2 (Homo sapiens, UniProt P10415); assay: Bcl-2 binding affinity analysis (fluorescence polarization binding assay)
Description: (§1) Bcl-2 and Bcl-xL binding can be determined using a variety of known methods. One such assay is a sensitive and quantitative in vitro binding assay using fluorescence polarization (FP) described by Wang, J. -L.; Zhang, Z -J.; Choksi, S.; Sjam. S.; Lu, Z.; Croce, C. M.; Alnenri, E. S.; Komgold, R.; Huang, Z. Cell permeable Bcl-2 binding peptides: a chemical approach to apoptosis induction in tumor cells. Cancer Res. 2000, 60, 1498-1502).
(§2) Bcl-2 and Bcl-xL binding affinity analysis data is presented below for various compounds of the invention.

[2] = target: Bcl-xL (Homo sapiens, UniProt Q07817); assay: Bcl-xL binding affinity analysis (fluorescence polarization binding assay); parameters: scale not given here
Description: as §1, §2

Bcl-2, sequence (P10415 whole entry): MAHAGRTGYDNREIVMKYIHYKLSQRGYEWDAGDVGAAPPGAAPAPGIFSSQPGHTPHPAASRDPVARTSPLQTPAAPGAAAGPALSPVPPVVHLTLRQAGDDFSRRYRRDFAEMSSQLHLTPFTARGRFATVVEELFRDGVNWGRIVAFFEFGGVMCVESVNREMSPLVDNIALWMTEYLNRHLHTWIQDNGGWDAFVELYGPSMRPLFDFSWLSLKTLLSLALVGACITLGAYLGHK
Bcl-xL, sequence (Q07817 whole entry): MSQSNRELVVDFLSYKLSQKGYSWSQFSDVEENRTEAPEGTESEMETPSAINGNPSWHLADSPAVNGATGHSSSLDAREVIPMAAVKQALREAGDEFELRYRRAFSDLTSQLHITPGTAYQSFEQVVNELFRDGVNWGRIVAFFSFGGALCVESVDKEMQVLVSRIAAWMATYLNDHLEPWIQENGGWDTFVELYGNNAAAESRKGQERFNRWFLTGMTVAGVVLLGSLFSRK

| SMILES | pKi [1] | Bcl-XL binding affinity Ki [2] |
| --- | --- | --- |
| CCCCC[C@H](O)C#Cc1ccc(CN2O[C@@H](CO)[C@@H]([C@H](C)O)[C@H]2C(=O)NCCCN(C)c2ccccc2)cc1 [Compound 46] | < 4.30 | ♯ |
| C[C@@H]1[C@@H](NC(=O)[C@@H]2[C@H]([C@H](C)O)[C@H](CO)ON2Cc2cccc(CN(CCCc3ccccc3)CCN(C)C)c2)C[C@H]2C[C@@H]1C2(C)C [Compound 205] | > 6.10 | ♯ |
| CC(O)C1[C@H](CO)ON(Cc2cccc(C#Cc3ccccn3)c2)[C@@H]1C(=O)N[C@H]1C[C@H]2CC([C@@H]1C)C2(C)C (stereo partly drawn) [Compound 32] | 5.22 to 6.10 | ♯ |
| C[C@@H]1[C@@H](NC(=O)[C@@H]2[C@H]([C@H](C)O)[C@H](COC(=O)NCCN3CCOCC3)ON2Cc2cccc(-c3ccc(C(=O)N(C)C)cc3)c2)C[C@H]2C[C@@H]1C2(C)C [Compound 245] | > 6.10 | ♯ |
| C[C@@H](O)[C@H]1[C@@H](CO)ON(Cc2cccc(C#CC(C)(O)c3ccccc3)c2)[C@H]1C(=O)NCCCN(C)c1ccccc1 (stereo partly drawn) [Compound 49] | 5.22 to 6.10 | ♯ |
| C[C@H](O)[C@@H]1[C@H](CO)ON(Cc2cccc(CN(CCN(C)C)Cc3ccccc3)c2)[C@@H]1C(=O)NCc1ccc(-c2ccccc2)cc1 [Compound 526] | > 6.10 | ♯ |
| CC(C)C[C@@H](CN(C)C)N(Cc1ccccc1)Cc1cccc(CN2O[C@@H](CO)[C@@H]([C@H](C)O)[C@H]2C(=O)NC(C)C)c1 [Compound 539] | 4.30 to 5.22 | ♯ |
| C[C@@H]1[C@@H](NC(=O)[C@@H]2[C@H]([C@H](C)O)[C@H](CO)ON2Cc2cccc(CN(CCN(C)C)CCC(C)(C)C)c2)C[C@H]2C[C@@H]1C2(C)C [Compound 203] | > 6.10 | ♯ |
| C[C@@H](O)[C@H]1[C@@H](CO)ON(Cc2cccc(C#CC(O)c3ccoc3)c2)[C@H]1C(=O)NCCCN(C)c1ccccc1 (stereo partly drawn) [Compound 36] | 5.22 to 6.10 | ♯♯ |
| CC(O)C1C(CO)ON(Cc2cccc(CN(CCN(C)C)Cc3ccccc3N3CCOCC3)c2)C1C(=O)NC1CC2CC(C1C)C2(C)C (stereo not drawn) [Compound 364] | > 6.10 | ♯ |
| CC(C)C[C@@H](CN(C)C)N(Cc1ccccc1)Cc1cccc(CN2O[C@@H](CO)[C@@H]([C@H](C)O)[C@H]2C(=O)NCCCNC(=O)OC(C)(C)C)c1 [Compound 543] | 4.30 to 5.22 | ♯ |
| C[C@@H]1[C@@H](NC(=O)[C@@H]2[C@H]([C@H](C)O)[C@H](CO)ON2CCCCN(CCN(C)C)Cc2ccccc2-c2ccccc2)C[C@H]2C[C@@H]1C2(C)C [Compound 551] | > 6.10 | ♯ |
| Cc1cccc(CN(Cc2cccc(CN3OC(CO)C(C(C)O)C3C(=O)NC3CC4CC(C3C)C4(C)C)c2)C(CC(C)C)CN(C)C)c1O (stereo not drawn) [Compound 337] | > 6.10 | ♯ |
| CCN(CC)CCNC(=O)c1cccc(-c2cccc(CN3O[C@@H](CO)[C@@H]([C@H](C)O)[C@H]3C(=O)N[C@H]3C[C@H]4C[C@@H]([C@@H]3C)C4(C)C)c2)c1 [Compound 112] | > 6.10 | ♯ |
| C[C@@H]1[C@@H](NC(=O)[C@@H]2[C@H]([C@H](C)O)[C@H](CO)ON2Cc2cccc(-c3cccc(C(=O)N[C@H]4CCN(C)C4)c3)c2)C[C@H]2C[C@@H]1C2(C)C [Compound 126] | > 6.10 | ♯ |
| CC(C)CC(CN(C)C)N(Cc1cccc(CN2OC(CO)C(C(C)O)C2C(=O)NC2CC3CC(C2C)C3(C)C)c1)Cc1cccc(C(C)(C)C)c1O (stereo not drawn) [Compound 338] | > 6.10 | ♯ |
| CC(C)C[C@@H](CN(C)C)NCc1cccc(CN2O[C@@H](CO)C([C@H](C)O)[C@H]2C(=O)N[C@H]2C[C@H]3C[C@@H]([C@@H]2C)C3(C)C)c1 (stereo partly drawn) [Compound 552] | 5.22 to 6.10 | ♯ |
| CC(O)C1C(CO)ON(Cc2cccc(CN(CCN(C)C)Cc3ccccc3-c3ccc(F)cc3)c2)C1C(=O)NC1CC2CC(C1C)C2(C)C (stereo not drawn) [Compound 341] | > 6.10 | ♯ |
| C[C@@H]1[C@@H](NC(=O)[C@@H]2[C@H]([C@H](C)O)[C@H](CO)ON2Cc2cccc(-c3cccc(C(=O)NCCCN4CCCCC4)c3)c2)C[C@H]2C[C@@H]1C2(C)C [Compound 111] | > 6.10 | ♯ |
| CCC(C)C(CN(C)C)N(Cc1cccc(CN2OC(CO)C(C(C)O)C2C(=O)NC2CC3CC(C2C)C3(C)C)c1)Cc1c(O)cccc1F (stereo not drawn) [Compound 440] | > 6.10 | ♯ |
| C[C@@H]1[C@@H](NC(=O)[C@@H]2[C@H]([C@H](C)O)[C@H](CO)ON2Cc2cccc(-c3cccc(C(=O)NCCCn4ccnc4)c3)c2)C[C@H]2C[C@@H]1C2(C)C [Compound 123] | > 6.10 | ♯ |

| SMILES | pKi [1] | Bcl-XL binding affinity Ki [2] |
| --- | --- | --- |
| CC(C)CC(CN(C)C)N(Cc1cccc(CN2OC(CO)C(C(C)O)C2C(=O)NC2CC3CC(C2C)C3(C)C)c1)Cc1cccc2c1OCO2 (stereo not drawn) [Compound 302] | > 6.10 | ♯ |
| C[C@@H]1[C@@H](NC(=O)[C@@H]2[C@H]([C@H](C)O)[C@H](CO)ON2Cc2cccc(-c3cccc(C(=O)N[C@H]4CCNC4)c3)c2)C[C@H]2C[C@@H]1C2(C)C [Compound 114] | > 6.10 | ♯ |
| C[C@@H]1[C@@H](NC(=O)[C@@H]2[C@H]([C@H](C)O)[C@H](CO)ON2Cc2cccc(-c3ccc(S(=O)(=O)N(C)C)cc3)c2)C[C@H]2C[C@@H]1C2(C)C [Compound 130] | > 6.10 | ♯♯ |
| C[C@@H](O)[C@H]1[C@@H](CO)ON(Cc2cccc(C#CCN(C)Cc3ccccc3)c2)[C@H]1C(=O)NCCCN(C)c1ccccc1 [Compound 51] | 5.22 to 6.10 | ♯ |
| C[C@@H]1[C@@H](NC(=O)[C@@H]2[C@H]([C@H](C)O)[C@H](CO)ON2Cc2cccc(-c3ccc(C(=O)N(C)C)cc3)c2)C[C@H]2C[C@@H]1C2(C)C [Compound 118] | > 6.10 | ♯ |
| C[C@@H]1[C@@H](NC(=O)[C@@H]2[C@H]([C@H](C)O)[C@H](CO)ON2Cc2cccc(CN(CCN(C)C)CC(C)(C)C)c2)C[C@H]2C[C@@H]1C2(C)C [Compound 213] | > 6.10 | ♯ |
| C[C@@H]1[C@@H](NC(=O)[C@@H]2[C@H]([C@H](C)O)[C@H](CO)ON2Cc2cccc(N(CCCN(C)C)CCCN(C)C)c2)C[C@H]2C[C@@H]1C2(C)C [Compound 583] | > 6.10 | ♯ |
| C[C@@H]1[C@@H](NC(=O)[C@@H]2[C@H]([C@H](C)O)[C@H](CO)ON2Cc2cccc(-c3cccc(C(=O)N4CCCN(C)CC4)c3)c2)C[C@H]2C[C@@H]1C2(C)C [Compound 125] | > 6.10 | ♯♯ |
| CC(O)C1C(CO)ON(Cc2cccc(C(=O)NC(CCc3ccccc3)CN(C)C)c2)C1C(=O)NC1CC2CC(C1C)C2(C)C (stereo not drawn) [Compound 511] | > 6.10 | ♯ |
| CCN(CC)CCN(Cc1cccc(CN2OC(CO)C(C(C)O)C2C(=O)NC2CC3CC(C2C)C3(C)C)c1)CC1CCCCC1 (stereo not drawn) [Compound 419] | > 6.10 | ♯ |
| C[C@@H]1[C@@H](NC(=O)[C@@H]2[C@H]([C@H](C)O)[C@H](CO)ON2Cc2cccc(-c3cccc(C(=O)NCCN4CCN(C)CC4)c3)c2)C[C@H]2C[C@@H]1C2(C)C [Compound 116] | > 6.10 | ♯ |
| C[C@H](O)[C@@H]1[C@H](CO)ON(Cc2cccc(CN(CCN(C)C)Cc3ccccc3)c2)[C@@H]1C(=O)Nc1cccc(-c2ccccc2)c1 [Compound 515] | > 6.10 | ♯ |
| COc1ccc(Br)cc1CN(Cc1cccc(CN2OC(CO)C(C(C)O)C2C(=O)NC2CC3CC(C2C)C3(C)C)c1)C(CC(C)C)CN(C)C (stereo not drawn) [Compound 335] | > 6.10 | ♯ |
| C[C@@H]1[C@@H](NC(=O)[C@@H]2[C@H]([C@H](C)O)[C@H](CO)ON2Cc2cccc(-c3ccc(-n4ccnc4)cc3)c2)C[C@H]2C[C@@H]1C2(C)C [Compound 117] | > 6.10 | ♯♯ |
| C[C@@H](O)[C@H]1[C@@H](CO)ON(Cc2cccc(C#CC(O)Cc3ccccc3)c2)[C@H]1C(=O)NCCCN(C)c1ccccc1 (stereo partly drawn) [Compound 39] | 5.22 to 6.10 | ♯♯ |
| C[C@H](O)[C@@H]1[C@H](CO)ON(Cc2cccc(CN(CCN(C)C)Cc3ccccc3)c2)[C@@H]1C(=O)NCCc1cccc(Br)c1 [Compound 514] | 5.22 to 6.10 | ♯ |
| C[C@@H]1[C@@H](NC(=O)[C@@H]2[C@H]([C@H](C)O)[C@H](CO)ON2Cc2cccc(-c3cccc(C(=O)N4CC[C@H](N(C)C)C4)c3)c2)C[C@H]2C[C@@H]1C2(C)C [Compound 119] | > 6.10 | ♯♯ |
| C[C@@H](O)[C@H]1[C@@H](CO)ON(Cc2cccc(C#CC(O)c3ccccc3Cl)c2)[C@H]1C(=O)NCCCN(C)c1ccccc1 (stereo partly drawn) [Compound 33] | 5.22 to 6.10 | ♯♯ |
| C[C@@H]1[C@@H](NC(=O)[C@@H]2[C@H]([C@H](C)O)[C@H](CO)ON2Cc2cccc(NCCCN(C)C)c2)C[C@H]2C[C@@H]1C2(C)C [Compound 582] | > 6.10 | ♯ |
| CC(C)C[C@@H](CN(C)C)N(Cc1ccccc1)Cc1cccc(CN2O[C@@H](CO)[C@@H]([C@H](C)O)[C@H]2C(=O)NCc2ccc(Oc3ccccc3)cc2)c1 [Compound 530] | 5.22 to 6.10 | ♯ |
| CC(C)/N=C(/NC(C)C)N1CCN(c2cccc(CN3O[C@@H](CO)[C@@H]([C@H](C)O)[C@H]3C(=O)NC3C[C@H]4C[C@@H]([C@@H]3C)C4(C)C)c2)CC1 (stereo partly drawn) [Compound 296] | > 6.10 | ♯ |
